Structures can show the parent of a compound that is named as a salt.

In the first data set the test system is EPO secretion by Hep3B cells. In words: Measurement of the secretion of EPO by Hep3B hepatocytes (ELISA on supernatant). In kind it is cell-based. To be noted: Homo sapiens, 18 hours incubation under normoxia, EPO in supernatant, 50% of the maximum response of this same compound. An excerpt: 2. Measurement of the Secretion of VEGF and EPO by Hep3B Hepatocytes 2.1. Object
HIF is a transcription factor involved in the adaptation of cells to hypoxia. Since the genes activated by HIF are involved in the adaptive response of cells to hypoxia and of tissues to ischaemia, the object is to identify and characterize compounds that stabilize HIF1-alpha in cells in order to amplify or mimic its beneficial effect. HIF1-alpha was identified following the analysis of the EPO gene promoter, which makes this protein one of the first markers of HIF1-alpha activation. Moreover, VEGF is also identified in the literature as one of the main markers of HIF activation. It is for this reason that measurement of these two proteins was selected for characterizing compounds that are HIF activators in Hep3B cells.
The object was thus to develop a sensitive screening test, adaptable to 96-well plates, for directly measuring the amount of VEGF and EPO in the supernatant of the Hep3B cells (cells derived from a human hepatocarcinoma) in response to the potential HIF activators.
The test is an ELISA test for measuring VEGF and EPO in the supernatant of Hep3B cells treated under hypoxia or with deferoxamine as controls or with the potential HIF activators. The test was adapted to a 96-well plate, allowing greater compound screening capacity.
• 2.3.1 Experiment Plan • 1) Inoculation of the cells on D0 • 2) Adherence for 6 hours under normoxia • 3) Preparation and addition of the products (Biomek 2000 and FX) • 4) Incubation under normoxia for 18 hours • 5) EPO and VEGF assay in the supernatant on D+1 • 2.3.2 Inoculation of the Cells
The cells are subcultured into 100 μl of culture medium (10% FCS) in black, opaque-bottomed 96-well plates (reference Costar 3916) at 30 000 cells/well, with Multidrop. • 2.3.3 Treatment of the Cells
The test products are prepared at 10^−2 M in 100% DMSO and then diluted to […] in medium containing 0.1% FCS (6 μl in 194 μl of MEM). 200 μl of each compound are deposited in column 12 of a 96-well plate. Dilution ranges from […] to 3×10^−8M are prepared with Biomek 2000 (programme: range of 9 points in series). 100 μl of MEM 0.1% FCS and Deferoxamine 5×10^−3M are added as controls to column 3 and, respectively, to wells A,B,C,D and wells E,F,G,H • DL Plate Distribution in Cell Plates
The medium of the cells inoculated the day before into 96-well plates is changed for 90 μl of medium containing 0.1% FCS and 10 μl are distributed with FX 96 from the 96-well DL plates to the cell plates.
The cell plates thus treated are placed for 18 hours in an incubator at 37° C. (ambient O2, 6% CO2).
The supernatants (80 μl) of the Hep3B cells in the 96-well plates treated with the potential HIF activators are recovered with a multichannel pipette for simultaneous assay of the VEGF and the EPO by ELISA according to the supplier's instructions (Kit EPO Mesoscale (ref K15122B-2)).
The activating activity of a compound with respect to HIF is given by the concentration that produces 50% of the maximum response of this same compound in Table IV below.
A general note: In an ELISA, binding on a coated surface is turned into a signal by an enzyme label.
Regarding `CCN(c1ccccc1)S(=O)(=O)c1ccc(-n2[nH]c(C)c(Cc3cccc(COC)c3)c2=O)nc1` [Compound 34, N-ethyl-6-{4-[3-(methoxymethyl)benzyl]-3-methyl-5-oxo-2,5-dihydro-1H-pyrazol-1-yl}-N-phenylpyridine-3-sulfonamide], it took 900 nM to reach a half-maximal effect (EC50).

Test system in the next data set: not given
Test: not given
Conditions: not given
For `CCN(c1ccccc1)S(=O)(=O)c1ccc(-n2[nH]cc(CC3CCCC3)c2=O)nc1` [Compound 134], the melting point amounted to 170 °C.

In the case of `COc1cncc(Cc2c(C)[nH]n(-c3ccc(S(=O)(=O)NC(C)(C)C)cn3)c2=O)c1` (as salt: HCl) [Compound 96], the melting point amounted to 150 °C. The same measure, in the same setting: to `CC(C)(C)OC(=O)c1ccc(-n2[nH]cc(Cc3cccnc3)c2=O)nc1` (as salt: HCl) [Compound 202] belongs 160 °C. Turning to `CC(C)(C)CNS(=O)(=O)c1ccc(-n2[nH]cc(Cc3cccnc3)c2=O)nc1` (as salt: HCl) [Compound 136], the melting point was 123 °C.

`Cc1[nH]n(-c2ccccn2)c(=O)c1Cc1ccccc1` [Compound 182] came in with a melting point of 110 °C. Consider `Cc1[nH]n(-c2ccccn2)c(=O)c1CCc1ccccc1` [Compound 196], for which the melting point came out at 128 °C. `Cc1[nH]n(-c2ccccn2)c(=O)c1Cc1ccc(N(C)C)cc1` [Compound 189] had a melting point of 110 °C. The molecule `O=c1c(Cc2ccccc2)c[nH]n1-c1ccc(S(=O)(=O)N(CC(CO)CO)C2CCCC2)cn1` [Compound 147, 6-(4-benzyl-5-oxo-2,5-dihydro-1H-pyrazol-1-yl)-N-cyclopentyl-N-[3-hydroxy-2-(hydroxymethyl)propyl]pyridine-3-sulfonamide] yielded a melting point of more than 260 °C. `COC(=O)CC(c1cccnc1)c1c[nH]n(-c2ccc(S(=O)(=O)NC(C)(C)C)cn2)c1=O` (centres unmarked) (as salt: HCl) [Compound 154, methyl 3-(2-[5-(tert-butylsulfamoyl)pyridin-2-yl]-3-oxo-2,3-dihydro-1H-pyrazol-4-yl)-3-(pyridin-3-yl)propanoate] registered a melting point of 146 °C. `Cc1[nH]n(-c2ccccn2)c(=O)c1Cc1ccccc1C(F)(F)F` [Compound 188] gave a melting point of 106 °C. Same read-out and setting: to `CCC(C)(C)N(C)S(=O)(=O)c1ccc(-n2[nH]cc(Cc3cccnc3)c2=O)nc1` [Compound 145] belongs 162 °C. Still for that read-out and setting: to `O=c1c(Cc2ccccc2)c[nH]n1-c1ccc(S(=O)(=O)N(C[C@H](O)CO)C2CCCC2)cn1` [Compound 148, 6-(4-benzyl-5-oxo-2,5-dihydro-1H-pyrazol-1-yl)-N-cyclopentyl-N-[(2S)-2,3-dihydroxypropyl]pyridine-3-sulfonamide] belongs 184 °C.

`CN([C@@H]1CC[C@H](CO)C1)S(=O)(=O)c1ccc(-n2[nH]cc(Cc3ccccc3)c2=O)nc1` [Compound 138, 6-(4-benzyl-5-oxo-2,5-dihydro-1H-pyrazol-1-yl)-N-[(1R,3S)-3-(hydroxymethyl)cyclopentyl]-N-methylpyridine-3-sulfonamide] showed a melting point of 108 °C.

On to `CCN(c1ccccc1)S(=O)(=O)c1ccc(-n2[nH]cc(CC(=O)N(C)C)c2=O)nc1` [Compound 105], for which the melting point was 168 °C. For the molecule `O=c1c(Cc2ccccc2)c[nH]n1-c1ccc(S(=O)(=O)N[C@H]2CCC[C@@H]2O)cn1` [Compound 149], the melting point turned out to be 176 °C. On the same count and under the same terms, the value for `CCN(c1ccccc1)S(=O)(=O)c1ccc(-n2[nH]cc(CCC(=O)O)c2=O)nc1` [Compound 110] was 214 °C.

The molecule `COc1ccc(Cc2c(C)[nH]n(-c3ccccn3)c2=O)cc1` [Compound 191] displayed a melting point of 96 °C. `CCOC(=O)Cc1[nH]n(-c2ccc(S(=O)(=O)N(CC)c3ccccc3)cn2)c(=O)c1Cc1ccccc1` [Compound 106, ethyl (4-benzyl-1-{5-[ethyl(phenyl)sulfamoyl]pyridin-2-yl}-5-oxo-2,5-dihydro-1H-pyrazol-3-yl)acetate] registered a melting point of 156 °C. Same read-out and setting: to `COCCOc1cccc(Cc2c(C)[nH]n(-c3ccccn3)c2=O)c1` [Compound 181] belongs 68 °C. On the same count and under the same terms, the value for `Cc1[nH]n(-c2ccccn2)c(=O)c1Cc1ccc(S(C)(=O)=O)cc1` [Compound 180] was 144 °C; that for `COC(=O)CN(C1CCCC1)S(=O)(=O)c1ccc(-n2[nH]cc(Cc3cccnc3)c2=O)nc1` (as salt: HCl) [Compound 128, methyl N-cyclopentyl-N-({6-[5-oxo-4-(pyridin-3-ylmethyl)-2,5-dihydro-1H-pyrazol-1-yl]pyridin-3-yl}sulfonyl)glycinate hydrochloride] was 110 °C. `CN(C1CCCC1)S(=O)(=O)c1ccc(-n2[nH]cc(C(CC(=O)NCC(F)(F)F)c3ccccc3)c2=O)nc1` (centres unmarked) [Compound 146, 3-(2-{5-[cyclopentyl(methyl)sulfamoyl]pyridin-2-yl}-3-oxo-2,3-dihydro-1H-pyrazol-4-yl)-3-phenyl-N-(2,2,2-trifluoroethyl)propanamide]: the melting point came out at 80 °C. In turn, `CCN(c1ccccc1)S(=O)(=O)c1ccc(-n2[nH]c(C)c(Cc3ccc(C#N)nc3)c2=O)nc1` [Compound 103] had a melting point of 120 °C. In turn, `CCN(c1ccccc1)S(=O)(=O)c1ccc(-n2[nH]c(C)c(CC3CCN(C)CC3)c2=O)nc1` (as salt: HCl) [Compound 94] returned a melting point of 150 °C. `COc1cccc(Cc2c(C)[nH]n(-c3ccccn3)c2=O)c1` [Compound 193]: the melting point stood at 120 °C. For `O=c1c(Cc2ccccc2)c[nH]n1-c1ccc(S(=O)(=O)N(CC(O)CO)c2ccccc2)cn1` (centres unmarked) [Compound 143, 6-(4-benzyl-5-oxo-2,5-dihydro-1H-pyrazol-1-yl)-N-(2,3-dihydroxypropyl)-N-phenylpyridine-3-sulfonamide], the melting point was found to be 174 °C. Take `Cc1[nH]n(-c2ccccn2)c(=O)c1Cc1ccc(C#N)cc1` [Compound 173]: the melting point worked out at 154 °C. As for `CCN(c1ccccc1)S(=O)(=O)c1ccc(-n2[nH]c(C)c(Cc3cncc(C#N)c3)c2=O)nc1` [Compound 97, 6-{4-[(5-cyanopyridin-3-yl)methyl]-3-methyl-5-oxo-2,5-dihydro-1H-pyrazol-1-yl}-N-ethyl-N-phenylpyridine-3-sulfonamide], the melting point is 164 °C. `Cc1[nH]n(-c2ccccn2)c(=O)c1Cc1cccc(C#N)c1` [Compound 177]: the melting point turned out to be 90 °C. For `CCN(c1ccccc1)S(=O)(=O)c1ccc(-n2[nH]c(CC(=O)N(C)C)c(Cc3ccccc3)c2=O)nc1` [Compound 109], the melting point came out at 163 °C. In turn, `CCN(c1ccccc1)S(=O)(=O)c1ccc(-n2[nH]cc(CCC(=O)OC)c2=O)nc1` [Compound 112] registered a melting point of 128 °C.

In general, EC50 refers to the concentration that produces a half-maximal response. Read a low EC50 as higher potency in that assay. Broadly, the melting point is the temperature of the solid-liquid transition.

Values taken from US8541455B2, “Derivatives of 2-pyridin-2-yl-pyrazol-3(2H)-one, preparation and therapeutic use thereof as HIF activators” (Sanofi, priority 2008, dated 2013).
